± gives the expanded uncertainty stated by the source.
Assay: xn = mol fraction of the nth substance listed
Conditions: Liquid, Vibrating tube method

CC(C)OC(C)C [diisopropyl ether] + CCC(C)O
mass density [kg/m3]
Conditions	x2 = 0	x2 = 0.2036	x2 = 0.3227	x2 = 0.4464	x2 = 0.4973	x2 = 0.6595	x2 = 0.8482
353.19 K, 30000 kPa	–	–	–	731.9 ± 0.8	735.7 ± 0.8	748.5 ± 0.8	765.1 ± 0.8
353.19 K, 35000 kPa	709.7 ± 0.9	721 ± 0.9	728.6 ± 0.9	736.8 ± 0.8	740.6 ± 0.8	753.1 ± 0.8	769.3 ± 0.8
353.19 K, 40000 kPa	714.8 ± 0.9	725.9 ± 0.9	733.3 ± 0.9	741.5 ± 0.9	745.1 ± 0.9	757.3 ± 0.9	773.4 ± 0.8
353.19 K, 45000 kPa	719.7 ± 0.9	730.8 ± 0.9	738 ± 0.9	745.9 ± 0.9	749.5 ± 0.9	761.5 ± 0.9	777.3 ± 0.9
353.19 K, 50000 kPa	724.6 ± 0.9	735.3 ± 0.9	742.4 ± 0.9	750.3 ± 0.9	753.8 ± 0.9	765.6 ± 0.9	781 ± 0.9
353.19 K, 55000 kPa	728.9 ± 1	739.4 ± 1	746.5 ± 0.9	754.3 ± 0.9	757.7 ± 0.9	769.4 ± 0.9	784.5 ± 0.9
353.19 K, 60000 kPa	733.2 ± 1	743.6 ± 1	750.5 ± 1	758.1 ± 1	761.6 ± 1	773 ± 0.9	788 ± 0.9
353.19 K, 65000 kPa	737.2 ± 1	747.6 ± 1	754.3 ± 1	761.9 ± 1	765.2 ± 1	776.6 ± 1	791.3 ± 0.9
353.19 K, 70000 kPa	741.1 ± 1.1	751.3 ± 1	758 ± 1	765.5 ± 1	768.8 ± 1	780 ± 1	794.6 ± 0.9
353.19 K, 80000 kPa	748.4 ± 1.1	758.3 ± 1.1	765 ± 1.1	772.2 ± 1	775.4 ± 1	786.3 ± 1	800.5 ± 1
353.19 K, 90000 kPa	755.4 ± 1.2	765.1 ± 1.1	771.5 ± 1.1	778.6 ± 1.1	781.8 ± 1.1	792.4 ± 1.1	806.4 ± 1
353.19 K, 100000 kPa	761.6 ± 1.2	771.2 ± 1.2	777.6 ± 1.2	784.5 ± 1.1	787.6 ± 1.1	798 ± 1.1	811.8 ± 1.1
353.19 K, 110000 kPa	767.8 ± 1.3	777.1 ± 1.2	783.4 ± 1.2	790.2 ± 1.2	793.3 ± 1.2	803.5 ± 1.1	816.9 ± 1.1
353.19 K, 120000 kPa	773.4 ± 1.3	782.6 ± 1.3	788.8 ± 1.2	795.5 ± 1.2	798.5 ± 1.2	808.6 ± 1.2	821.8 ± 1.1
353.19 K, 130000 kPa	778.8 ± 1.3	787.8 ± 1.3	793.9 ± 1.3	800.6 ± 1.3	803.5 ± 1.2	813.4 ± 1.2	826.5 ± 1.2
353.19 K, 140000 kPa	784 ± 1.4	792.9 ± 1.4	798.9 ± 1.3	805.4 ± 1.3	808.4 ± 1.3	818.2 ± 1.2	831 ± 1.2
373.24 K, 1000 kPa	635.6 ± 0.7	649.8 ± 0.7	659.4 ± 0.7	670 ± 0.7	674.8 ± 0.7	690.8 ± 0.7	711.2 ± 0.7
373.24 K, 5000 kPa	645.5 ± 0.7	659 ± 0.7	668 ± 0.7	678.1 ± 0.7	682.5 ± 0.7	697.8 ± 0.7	717.4 ± 0.7
373.24 K, 10000 kPa	656.1 ± 0.8	668.7 ± 0.8	677.2 ± 0.8	686.9 ± 0.8	691.1 ± 0.8	705.6 ± 0.8	724.3 ± 0.7
373.24 K, 15000 kPa	665.3 ± 0.8	677.4 ± 0.8	685.5 ± 0.8	694.7 ± 0.8	698.8 ± 0.8	712.7 ± 0.8	730.7 ± 0.8
373.24 K, 20000 kPa	673.5 ± 0.8	685.1 ± 0.8	–	–	–	–	–

Source: the NIST ThermoML archive (doi:10.1016/j.jct.2016.10.009)
